Data on 17 compounds can be found in ChEMBL document CHEMBL4627270, “Design, synthesis and biological evaluation of novel carbamates as potential inhibitors of acetylcholinesterase and butyrylcholinesterase” (Bioorg Med Chem, 2020).

The target in assay [1] is T1, Cholinesterase (Homo sapiens, UniProt P06276). The assay is described as follows: Inhibition of human plasma BChE assessed as decarbamylation rate constant using S-butyrylthiocholine iodide as substrate preincubated for 15 to 60 mins followed by substrate addition by Ellman's method.
T1 sequence (P06276 whole entry): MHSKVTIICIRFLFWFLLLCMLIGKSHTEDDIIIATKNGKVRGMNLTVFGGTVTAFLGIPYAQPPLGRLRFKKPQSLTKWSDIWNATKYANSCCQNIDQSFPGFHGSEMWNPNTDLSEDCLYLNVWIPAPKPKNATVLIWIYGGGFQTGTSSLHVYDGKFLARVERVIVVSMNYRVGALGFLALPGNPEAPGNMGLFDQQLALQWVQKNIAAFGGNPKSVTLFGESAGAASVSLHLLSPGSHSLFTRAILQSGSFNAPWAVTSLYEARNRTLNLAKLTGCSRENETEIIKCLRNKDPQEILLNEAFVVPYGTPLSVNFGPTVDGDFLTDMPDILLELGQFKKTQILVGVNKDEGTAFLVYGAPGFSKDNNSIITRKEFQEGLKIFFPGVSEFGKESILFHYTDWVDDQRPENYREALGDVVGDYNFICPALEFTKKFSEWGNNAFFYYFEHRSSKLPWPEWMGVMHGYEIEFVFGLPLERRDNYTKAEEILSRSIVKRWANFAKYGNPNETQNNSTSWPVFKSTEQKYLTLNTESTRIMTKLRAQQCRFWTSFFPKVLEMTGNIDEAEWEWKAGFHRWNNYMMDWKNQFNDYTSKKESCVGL
Assay [2] deals with Cholinesterase (Equus caballus, UniProt P81908). The assay is described as follows: Inhibition of equine serum BChE using S-butyrylthiocholine iodide as substrate preincubated for 60 mins followed by substrate addition and measured for 5 mins by Ellman's method. On the technique in general: Ellman's reagent forms a yellow product with free thiols.
Sequence of Cholinesterase (Equus caballus, UniProt P81908) (P81908 whole entry): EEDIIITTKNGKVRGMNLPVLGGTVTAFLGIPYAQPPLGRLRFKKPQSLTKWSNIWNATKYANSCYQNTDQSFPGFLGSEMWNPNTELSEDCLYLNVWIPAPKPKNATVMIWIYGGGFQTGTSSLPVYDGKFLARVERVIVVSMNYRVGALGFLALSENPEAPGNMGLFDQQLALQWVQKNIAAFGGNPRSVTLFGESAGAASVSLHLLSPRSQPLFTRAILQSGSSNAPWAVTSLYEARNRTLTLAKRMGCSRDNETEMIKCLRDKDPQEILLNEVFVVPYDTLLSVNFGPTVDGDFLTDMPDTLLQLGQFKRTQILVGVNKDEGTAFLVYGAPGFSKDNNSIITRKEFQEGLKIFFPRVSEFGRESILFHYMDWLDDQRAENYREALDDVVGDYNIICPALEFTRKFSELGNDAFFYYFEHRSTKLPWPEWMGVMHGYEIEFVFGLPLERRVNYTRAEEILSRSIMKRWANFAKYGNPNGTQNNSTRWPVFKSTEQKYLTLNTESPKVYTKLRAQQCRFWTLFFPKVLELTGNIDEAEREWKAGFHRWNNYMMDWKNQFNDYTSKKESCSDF
Assay [3] deals with Acetylcholinesterase (Electrophorus electricus, UniProt O42275). The assay is described as follows: Inhibition of electric eel AChE using S-acetylthiocholine iodide as substrate preincubated for 60 mins followed by substrate addition and measured for 5 mins by Ellman's method.
Sequence of Acetylcholinesterase (Electrophorus electricus, UniProt O42275) (O42275 whole entry): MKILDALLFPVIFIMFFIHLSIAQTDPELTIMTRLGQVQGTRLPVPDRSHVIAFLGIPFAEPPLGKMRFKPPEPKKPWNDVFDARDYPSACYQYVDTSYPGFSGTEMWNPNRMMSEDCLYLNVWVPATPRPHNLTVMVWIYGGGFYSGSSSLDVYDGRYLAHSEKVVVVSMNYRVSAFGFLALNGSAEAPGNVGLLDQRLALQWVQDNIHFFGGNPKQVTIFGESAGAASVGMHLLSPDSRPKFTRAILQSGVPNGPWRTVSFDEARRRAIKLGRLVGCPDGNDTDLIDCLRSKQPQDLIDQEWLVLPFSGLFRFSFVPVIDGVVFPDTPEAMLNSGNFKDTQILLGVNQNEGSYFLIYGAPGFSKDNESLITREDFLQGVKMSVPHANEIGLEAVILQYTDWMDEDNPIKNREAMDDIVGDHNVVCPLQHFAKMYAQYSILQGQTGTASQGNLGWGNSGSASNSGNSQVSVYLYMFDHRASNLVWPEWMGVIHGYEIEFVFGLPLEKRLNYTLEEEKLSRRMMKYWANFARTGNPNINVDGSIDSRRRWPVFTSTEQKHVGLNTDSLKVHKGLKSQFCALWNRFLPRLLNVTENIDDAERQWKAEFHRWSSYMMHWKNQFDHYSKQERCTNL
The target of assay [4] is T1, Cholinesterase. The assay is described as follows: Inhibition of human plasma BChE assessed as second order carbamylation rate constant using S-butyrylthiocholine iodide as substrate preincubated for 15 to 60 mins followed by substrate addition by Ellman's method.
Assay [5] has as its target T1, Cholinesterase. The assay is described as follows: Inhibition of human plasma BChE using S-butyrylthiocholine iodide as substrate preincubated for 20 to 60 mins followed by substrate addition and measured for 5 mins by Ellman's method.
Assay [6] deals with T1, Cholinesterase. The assay is described as follows: Potency index, ratio of test compound to rivastigmine for inhibition of human plasma BChE assessed as second order carbamylation rate constant using S-butyrylthiocholine iodide as substrate.
The target of assay [7] is T1, Cholinesterase. The assay is described as follows: Inhibition of human plasma BChE at 2.5 to 25 nM using S-butyrylthiocholine iodide as substrate incubated prior to substrate addition and measured for 5 mins by Ellman's method. The settings on record: TDE = time-dependent effect.
Assay [8] deals with Acetylcholinesterase (Homo sapiens, UniProt P22303). The assay is described as follows: Inhibition of human erythrocyte AChE using S-acetylthiocholine iodide as substrate preincubated for 60 mins followed by substrate addition and measured for 5 mins by Ellman's method.
Sequence of Acetylcholinesterase (Homo sapiens, UniProt P22303) (P22303 whole entry): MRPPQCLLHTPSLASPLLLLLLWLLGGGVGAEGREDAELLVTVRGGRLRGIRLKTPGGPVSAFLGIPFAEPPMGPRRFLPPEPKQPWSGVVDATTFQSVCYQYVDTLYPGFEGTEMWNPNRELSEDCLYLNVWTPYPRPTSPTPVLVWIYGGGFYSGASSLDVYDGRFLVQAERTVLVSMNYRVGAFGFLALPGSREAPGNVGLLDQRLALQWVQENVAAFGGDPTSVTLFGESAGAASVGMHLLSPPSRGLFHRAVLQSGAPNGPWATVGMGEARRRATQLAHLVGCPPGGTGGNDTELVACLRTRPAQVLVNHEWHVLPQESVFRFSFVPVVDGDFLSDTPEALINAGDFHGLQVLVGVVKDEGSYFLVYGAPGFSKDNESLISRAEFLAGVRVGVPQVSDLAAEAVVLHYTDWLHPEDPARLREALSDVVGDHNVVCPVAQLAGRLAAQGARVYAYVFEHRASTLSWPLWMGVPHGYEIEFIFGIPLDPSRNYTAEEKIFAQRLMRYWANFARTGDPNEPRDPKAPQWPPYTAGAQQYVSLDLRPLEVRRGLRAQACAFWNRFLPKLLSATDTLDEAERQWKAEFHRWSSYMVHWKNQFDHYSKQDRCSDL
The target of assay [9] is T1, Cholinesterase. The assay is described as follows: Inhibition of human plasma BChE using S-butyrylthiocholine iodide as substrate preincubated for 60 mins followed by substrate addition and measured for 5 mins by Ellman's method.
Assay [10] has as its target T1, Cholinesterase. The assay is described as follows: Inhibition of human plasma BChE at 15 to 100 nM using S-butyrylthiocholine iodide as substrate incubated prior to substrate measured for 5 mins by Ellman's method. The settings on record: TDE = time-dependent effect.

Each structure is given as a SMILES string.

One may read the IC50 as the concentration needed to halve the response being measured. Read a low IC50 as higher potency.

On to `CN(C)C(=O)Oc1cccc(C(O)CNC2CCCCC2)c1` (stereo not drawn), for which the K in assay [1] was 18.9 ×10⁻³ /min; in [4], 1110 ×10⁴ /M/min. Moreover, the IC50 in assay [2] was found to be 8 nM; in assay [3], 1870 nM; in [8], 792000 nM; in assay [9], 2200 nM. Further, the results for the inhibition entry in [5] and in assay [7] were “Dose-dependent effect” and “Tde”, respectively. Besides, the Ratio in [6] stood at 10.

For the compound `CN(C)C(=O)Oc1cccc(C(O)CNc2ccccc2)c1` (stereo not drawn), the IC50 in [2] was determined as 282 nM; in assay [3] it was 67500 nM.

As for `CN(C)C(=O)Oc1cccc(C(O)CNC(C)(C)c2ccccc2)c1` (stereo not drawn), the figures for the IC50 in assay [2] and in assay [3] were 303 nM and 7120 nM, respectively.

For `CN(C)C(=O)Oc1ccc(C(O)CNC2CCCCC2)cc1` (stereo not drawn), the values for the K in assay [1] and in assay [4] were 14.8 ×10⁻³ /min and 206 ×10⁴ /M/min, respectively. Also, the IC50 in [2] came out at 27 nM; in [3] it was 655 nM; in assay [8], 266000 nM; in assay [9] it was 10600 nM. Further, the inhibition result in [5] is “Dose-dependent effect”; in [10], “Tde”. The Ratio in assay [6] turned out to be 20.

As for `CCN(C)C(=O)Oc1cccc([C@H](C)N(C)C)c1`, the K in assay [1] came to 2.3 ×10⁻³ /min; in [4], 33.3 ×10⁴ /M/min.

As for `CCC(C)(C)NCC(O)c1cccc(OC(=O)N(C)C)c1` (stereo not drawn), the IC50 in assay [2] is 180 nM; in assay [3] it was 4150 nM.

For the compound `CN(C)C(=O)Oc1cccc(C(O)CN2CCOCC2)c1` (stereo not drawn), the IC50 is 2190 nM in [2] and above 100000 nM in assay [3].

Consider `CN(C)C(=O)Oc1cccc(C(O)CNC(C)(C)C)c1` (stereo not drawn), for which the results for the IC50 in assay [2] and in assay [3] were 383 nM and 6080 nM, respectively.

With `C#Cc1cccc(NCC(O)c2cccc(OC(=O)N(C)C)c2)c1` (stereo not drawn), the IC50 is 154 nM in assay [2] and 70500 nM in assay [3].

Regarding `CN(C)C(=O)Oc1cccc(C(O)CNC2CCCC2)c1` (stereo not drawn), the concentration for half-maximal inhibition (IC50) was found to be 57 nM in assay [2] and 1390 nM in assay [3].

Take `CN(C)C(=O)Oc1cccc(C(O)CN2CCCC2)c1` (stereo not drawn): the IC50 in assay [2] worked out at 179 nM; in [3], 3150 nM.

In the case of `CN(C)C(=O)Oc1ccc(C(O)CN2CCCCC2)cc1` (stereo not drawn), the IC50 is 245 nM in [2] and 3510 nM in [3].

As to `CN(C)C(=O)Oc1cccc(C(O)CNc2ccc(F)cc2)c1` (stereo not drawn), the IC50 in assay [2] stood at 194 nM; in assay [3], 45400 nM.

On to `CN(C)C(=O)Oc1cccc(C(O)CN2CCCCC2)c1` (stereo not drawn), for which the IC50 in assay [2] was determined as 97 nM; in assay [3], 3740 nM.

`CN(C)C(=O)Oc1ccc(C(O)CNC(C)(C)C)cc1` (stereo not drawn): the IC50 in assay [2] came to 5370 nM; in [3], 15000 nM.

In the case of `CN(C)C(=O)Oc1cccc(C(O)CNc2ccc(I)cc2)c1` (stereo not drawn), the IC50 in [2] was determined as 381 nM; in assay [3], 28900 nM.

In the case of `CCC(C)(C)NCC(O)c1ccc(OC(=O)N(C)C)cc1` (stereo not drawn), the IC50 in [2] was 1570 nM; in assay [3], 15900 nM.
